Assay [1] concerns the target T1, COX-2 (Homo sapiens, UniProt P35354).
T1 sequence (P35354 18-604): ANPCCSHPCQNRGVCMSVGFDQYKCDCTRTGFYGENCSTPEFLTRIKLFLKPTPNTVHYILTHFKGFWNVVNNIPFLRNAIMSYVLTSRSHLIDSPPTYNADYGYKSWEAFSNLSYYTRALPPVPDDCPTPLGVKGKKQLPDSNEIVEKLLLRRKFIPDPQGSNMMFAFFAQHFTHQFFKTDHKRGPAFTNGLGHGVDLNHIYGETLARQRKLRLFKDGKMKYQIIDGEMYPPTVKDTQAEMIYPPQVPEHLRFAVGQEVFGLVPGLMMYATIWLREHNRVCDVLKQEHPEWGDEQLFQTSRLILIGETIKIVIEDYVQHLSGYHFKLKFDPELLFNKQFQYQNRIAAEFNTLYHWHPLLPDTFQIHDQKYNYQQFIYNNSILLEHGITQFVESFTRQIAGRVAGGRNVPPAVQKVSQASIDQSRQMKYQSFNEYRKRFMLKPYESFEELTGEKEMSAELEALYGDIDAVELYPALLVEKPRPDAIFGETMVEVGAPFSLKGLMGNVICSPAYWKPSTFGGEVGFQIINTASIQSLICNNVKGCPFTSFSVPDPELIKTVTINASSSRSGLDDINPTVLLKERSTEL
In words: Human whole blood assay, COX-2 (LPS-induced PGE2 production). It is filed as cell-based. On the set-up: endogenous in cells; host or cells: fresh heparinized human whole blood from volunteers, incubated with LPS. The conditions noted are these: LPS-induced PGE2, 24 hours at 37° C., read-out: COX-2 (IC50 μM) HWB. As to the method: Human whole blood provides a protein and cell-rich milieu appropriate for the study of biochemical efficacy of anti-inflammatory compounds such as selective COX-2 inhibitors. […] This is consistent with the observation that COX-2 inhibitors have no effect on PGE2 production in normal blood. These inhibitors are active only after incubation of human whole blood with LPS, which induces COX-2. This assay can be used to evaluate the inhibitory effect of selective COX-2 inhibitors on PGE2 production. As well, platelets in whole blood contain a large amount of the COX-1 enzyme. Immediately following blood clotting, platelets are activated through a thrombin-mediated mechanism. This reaction results in the production of thromboxane B2 (TxB2) via activation of COX-1. Thus, the effect of test compounds on TxB2 levels following blood clotting can be examined and used as an index for COX-1 activity. Therefore, the degree of selectivity by the test compound can be determined by measuring the levels of PGE2 after LPS induction (COX-2) and TxB2 following blood clotting (COX-1) in the same assay.
A. COX-2 (LPS-induced PGE2 production)
Fresh blood is collected in heparinized tubes by venipuncture from both male and female volunteers. The subjects have no apparent inflammatory conditions and have not taken any NSAIDs for at least 7 days prior to blood collection. Plasma is immediately obtained from a 2 mL blood aliquot to use as blank (basal levels of PGE2). The remaining blood is incubated with LPS (100 μg/ml final concentration, Sigma Chem, #L-2630 from E. coli; diluted in 0.1% BSA (Phosphate buffered saline) for 5 minutes at room temperature. Five hundred μL aliquots of blood are incubated with either 2 μL of vehicle (DMSO) or 2 μL of a test compound at final concentrations varying from 10 nM to 30 μM for 24 hours at 37° C. At the end of the incubation, the blood is centrifuged at 12,000×g for 5 minutes to obtain plasma. A 100 μL aliquot of plasma is mixed with 400 μL of methanol for protein precipitation. The supernatant is obtained and is assayed for PGE2 using a radioimmunoassay kit (Amersham, RPA#530) after conversion of PGE2 to its methyl oximate derivative according to the manufacturer's procedure.

Assay [2] addresses T1, COX-2. In words: Whole cell assay for COX-2 using CHO[hCOX-2] transfected cell line. It is filed as cell-based. On the set-up: expressed in transfected cells; host or cells: CHO cells stably transfected with pCDNAIII (CHO[hCOX-2]). To be noted: CHO[hCOX-2] cells, PGE2 synthesis, 10 μM AA. The text has this:
Whole cell assays for COX-2 and COX-1 using CHO transfected cell lines
Chinese hamster ovary (CHO) cell lines which have been stably transfected with an eukaryotic expression vector pCDNAIII containing either the human COX-1 or COX-2 cDNA's are used for the assay. These cell lines are referred to as CHO[hCOX-1] and CHO[hCOX-2], respectively. For cyclooxygenase assays, CHO[hCOX-1] cells from suspension cultures and CHO[hCOX-2] cells prepared by trypsinization of adherent cultures are harvested by centrifugation (300×g, 10 min) and washed once in HBSS containing 15 mM HEPES, pH 7.4, and resuspended in HBSS, 15 mM HEPES, pH 7.4, at a cell concentration of 1.5×10^6 cells/ml. Drugs to be tested are dissolved in DMSO to 66.7-fold the highest test drug concentration. Compounds are typically tested at 8 concentrations in duplicate using serial 3-fold serial dilutions in DMSO of the highest drug concentration. Cells (0.3×10^6 cells in 200 μl) are preincubated with 3 μl of the test drug or DMSO vehicle for 15 min at 37° C. Working solutions of peroxide-free AA (5.5 μM and 110 μM AA for the CHO[hCOX-1] and CHO[COX-2] assays, respectively) are prepared by a 10-fold dilution of a concentrated AA solution in ethanol into HBSS containing 15 mM HEPES, pH 7.4. Cells are then challenged in the presence or absence of drug with the AA/HBSS solution to yield a final concentration of 0.5 μM AA in the CHO[hCOX-1] assay and a final concentration of 10 μM AA in the CHO[hCOX-2] assay. The reaction is terminated by the addition of 10 μl 1N HCl followed by neutralization with 20 μl of 0.5N NaOH. The samples are centrifuged at 300×g at 4° C. for 10 min, and an aliquot of the clarified supernatant is appropriately diluted for the determination of PGE2 levels using an enzyme-linked immunoassay for PGE2 (Correlate PGE2 enzyme immunoassay kit, Assay Designs, Inc.). Cyclooxygenase activity in the absence of test compounds is determined as the difference in PGE2 levels of cells challenged with arachidonic acid versus the PGE2 levels in cells mock-challenged with ethanol vehicle. Inhibition of PGE2 synthesis by test compounds is calculated as a percentage of the activity in the presence of drug versus the activity in the positive control samples.
Compounds of the present invention are inhibitors of cyclooxygenase-2 and are thereby useful in the treatment of cyclooxygenase-2 mediated diseases as enumerated above. The activities of the compounds against cyclooxygenase may be seen in the representative results shown below. In the assay, inhibition is determined by measuring the amount of prostaglandin E2 (PGE2) synthesized in the presence of arachidonic acid, cyclooxygenase-1 or cyclooxygenase-2 and a putative inhibitor. The IC50 values represent the concentration of putative inhibitor required to return PGE2 synthesis to 50% of that obtained as compared to the uninhibited control.

The IC50 is the concentration that gives 50% inhibition.

Regarding `Cc1cc(-c2ccc(S(C)(=O)=O)cc2)c(-c2ccccc2)c(=O)o1` [Example 4, 6-Methyl-4-(4-methylsulfonyl)phenyl-3-phenyl-pyran-2-one], the figures for the IC50 at COX-2 [1] and on COX-2 [2] were less than 0.4 µM and 0.4 µM, respectively.

As for `Cc1cc(-c2ccc(S(C)(=O)=O)cc2)c(SC(C)C)c(=O)o1` [Example 10, 3-Isopropylthio-6-methyl-4-(4-(methylsulfonyl)phenyl)-pyran-2-one], the IC50 at COX-2 [1] is 1.3 µM; on COX-2 [2] it was 0.8 µM.

As for `CC(C)Sc1c(-c2ccc(S(C)(=O)=O)cc2)cc(C(F)(F)F)oc1=O` [Example 12, 3-Isopropylthio-4-(4-(methylsulfonyl)phenyl)-6-trifluoromethyl-pyran-2-one], the IC50 on COX-2 [1] was 1 to 3 µM; against COX-2 [2], 0.06 µM.

As to `CS(=O)(=O)c1ccc(-c2cc(C(F)(F)F)oc(=O)c2Sc2ccccc2)cc1` [Example 11, 4-(4-(Methylsulfonyl)phenyl)-3-phenylthio-6-trifluoromethyl-pyran-2-one], the figures for the IC50 at COX-2 [1] and on COX-2 [2] were 0.3 to 1 µM and 0.01 µM, respectively.

Turning to `Cc1cc(-c2ccc(S(C)(=O)=O)cc2)c(-c2cccc(F)c2)c(=O)o1` [Example 3, 3-(3-Fluorophenyl)-6-methyl-4-(4-methylsulfonyl)phenyl-pyran-2-one], the figures for the IC50 at COX-2 [1] and at COX-2 [2] were less than 0.4 µM and 0.6 µM, respectively.

Turning to `CS(=O)(=O)c1ccc(-c2cc(C(F)F)oc(=O)c2-c2ccccc2)cc1` [Example 5, 6-Difluoromethyl-4-(4-methylsulfonyl)phenyl-3-phenyl-pyran-2-one], the values for the IC50 at COX-2 [1] and against COX-2 [2] were 1.8 µM and 0.2 µM, respectively.

On to `Cc1cc(-c2ccc(S(C)(=O)=O)cc2)c(Oc2ccccc2)c(=O)o1` [Example 8, 6-Methyl-4-(4-(methylsulfonyl)phenyl)-3-phenoxy-pyran-2-one], for which the IC50 was less than 0.4 µM on COX-2 [1] and 0.2 µM against COX-2 [2].

On to `CS(=O)(=O)c1ccc(-c2ccoc(=O)c2-c2ccccc2)cc1` [Example 1, 4-(4-Methylsulfonyl)phenyl-3-phenyl-pyran-2-one], for which the IC50 on COX-2 [1] turned out to be 2.6 µM; against COX-2 [2], 0.12 µM.

Take `Cc1cc(-c2ccc(S(C)(=O)=O)cc2)c(-c2cccnc2)c(=O)o1` [Example 9]: the IC50 is 0.6 µM on COX-2 [1] and 2.9 µM at COX-2 [2].

Take `Cc1cc(-c2ccc(S(C)(=O)=O)cc2)c(-c2ccc(F)cc2)c(=O)o1` [Example 2, 3-(4-Fluorophenyl)-6-methyl-4-(4-methylsulfonyl)phenyl-pyran-2-one]: the IC50 is less than 0.4 µM on COX-2 [1] and 0.4 µM against COX-2 [2].

For the compound `Cc1cc(-c2ccc(S(C)(=O)=O)cc2)c(Sc2ccccc2)c(=O)o1` [Example 7, 6-Methyl-4-(4-(methylsulfonyl)phenyl)-3-phenylthio-pyran-2-one], the IC50 on COX-2 [1] is 0.5 µM; against COX-2 [2], 0.14 µM.

Consider `Cc1cc(-c2ccc(S(C)(=O)=O)cc2)c(CCC(C)(C)O)c(=O)o1` [Example 14, 3-(3-Hydroxy-3-methylbutyl)-6-methyl-4-(4-methylsulfonyl)phenyl-pyran-2-one], for which the IC50 at COX-2 [1] is 1.2 µM; against COX-2 [2], 2.8 µM.

As to `CS(=O)(=O)c1ccc(-c2cc(CF)oc(=O)c2-c2ccccc2)cc1` [Example 6, 6-Fluoromethyl-4-(4-methylsulfonyl)phenyl-3-phenyl-pyran-2-one], the IC50 came out at 3.1 µM at COX-2 [1] and 1.1 µM at COX-2 [2].

(Values after patent publication US6465509B2, “Pyrones as inhibitors of cyclooxygenase-2” (Merck Frosst Canada & Co., priority 2000, dated 2002).)
